According to patent publication US5053333A, “Protease” (M & D Research Co., Ltd., priority 1988, dated 1991):
Read-outs that look alike come from different tables or passages of the source. Square brackets hold non-standard residues; d marks the D form. Ends that are not written are not given here. Peptide text beside a SMILES is read from it. pGlu = O=C1CC[C@@H](C(=O)O)N1

Tested on: Benz-I (protease specific for basic amino acid residue)
Experiment: Cleavage of peptides by Benz-I, HPLC and amino acid composition of fragments
Assay type: biochemical, Kluyveromyces lactis IFO 1903
Protocol: The composition of the employed reaction mixture and the examination conditions were as follows. Namely, 500 μl of a reaction mixture containing 25 μmol of tris hydrochloride buffer solution (pH 7.0), 0.25 μmol of CaCl2, 5 mg of Lubrol PX, 100 μg of NaN3, each peptide at various concentrations and Benz-I at various concentrations was allowed to react at 30° C. for 20 hours.
50-μl portions of the reaction mixture were sampled after the reaction for 0 and 20 hours and 50 μl of a reaction terminating agent comprising 0.2% of TFA and 10 mM of EDTA was added thereto. The resulting mixture was analyzed by HPLC. The HPLC was conducted by CH3 CN gradient elution with the use of an Ultron NC18 column (0.45×15 cm) or a TSK gel ODS-80TM column (0.46×25 cm) in the presence of 0.1% of TFA.
The residual reaction mixture was chromatographed under the same conditions as those employed in the above analysis and main peaks were fractionated. The fractionated eluate was evaporated to dryness on a centrifugal evaporator and decomposed with hydrochloric acid at 110° C. for 24 hours. Then each fragment was assumed from the amino acid composition.

Molecule	Fragment obtained (assumed from amino acid composition) after reaction with Benz-I (200 mU Benz-I, 50 nmol peptide, 30° C., 20 hours)	Fragment obtained (assumed from amino acid composition) after reaction with Benz-I
CC[C@H](C)[C@H](NC(=O)[C@H](Cc1c[nH]c2ccccc12)NC(=O)[C@@H]1CCCN1C(=O)[C@H](CCCNC(=N)N)NC(=O)[C@H](CCCCN)NC(=O)CNC(=O)[C@@H]1CCC(=O)N1)C(=O)N[C@@H](CC(C)C)C(=O)O [Xenopsin] ([pGlu]GKRPWIL-OH)	pGlu-Gly-Lys-Arg	
YGGFMRRVRPE [BAM-12P]		Val-Gly-Arg-Pro-Glu
